Results taken from US10934298B2, “Substituted pyrazolo[1,5-a]pyrimidines for the treatment of medical disorders” (BIAL—BioTech Investments, Inc., priority 2016, dated 2021).

Molecular target: T1, glucocerebrosidase (Gcase) (Homo sapiens, UniProt P04062)
T1 construct: micellar solution containing 10 nM GCase and 100 nM saposin C
T1 sequence (P04062 40-536): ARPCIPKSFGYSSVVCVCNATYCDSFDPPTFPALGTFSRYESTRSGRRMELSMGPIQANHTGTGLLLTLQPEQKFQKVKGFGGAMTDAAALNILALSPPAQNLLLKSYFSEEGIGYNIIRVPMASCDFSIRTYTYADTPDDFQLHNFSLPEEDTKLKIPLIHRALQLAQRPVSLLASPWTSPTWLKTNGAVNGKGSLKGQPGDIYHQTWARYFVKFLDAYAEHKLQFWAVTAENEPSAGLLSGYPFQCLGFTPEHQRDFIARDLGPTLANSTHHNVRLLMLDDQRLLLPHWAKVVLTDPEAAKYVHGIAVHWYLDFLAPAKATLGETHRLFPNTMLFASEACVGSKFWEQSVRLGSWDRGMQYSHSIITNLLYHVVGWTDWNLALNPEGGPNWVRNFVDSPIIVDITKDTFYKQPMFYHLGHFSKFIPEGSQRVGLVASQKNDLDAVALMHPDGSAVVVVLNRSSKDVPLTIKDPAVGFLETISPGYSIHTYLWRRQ
Assay: Glucocerebrosidase (Gcase) activation assay with 4-methylumbelliferyl-beta-D-glucopyranoside substrate, saposin C and phosphatidylserine/triton micelles, fluorescence readout
Type: biochemical
In short: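 Readout is endpoint fluorescence (ex 365, em 440 nm) after glycine pH 12.5 stop of a 15-min room-temperature reaction. Enzyme mix: GCase 10 nM plus saposin C 100 nM in 0.37 mol % PS/0.32 mM triton micelles, pH 4.7, compound pre-incubated 30 min; substrate solution 2 mM before 1:1 mixing. Tested at 1.0/0.1 μM, then 3-fold, 8-point series up to 5 μM.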

Cc1cc(C)n2nc(Cl)c(C(=O)N[C@@H](C)C3CC3)c2n1 [III-34]
Percent Gcase Activation, 0.1 μM Test Compound (0.1 μM test compound, Table 3A): * (less than 10% Gcase activation) | Percent Gcase Activation, 1 μM Test Compound (1 μM test compound, Table 3A): + (less than 30% Gcase activation)

Cc1cc(-c2ccc(F)c(C(N)=O)c2)nc2c(C(=O)N[C@@H](C)C3CC3)cnn12 [III-160]
Percent Gcase Activation, 0.1 μM Test Compound (test compound at 0.1 μM): ** (Gcase activation in the range of 10% up to 20%) | Percent Gcase Activation, 1 μM Test Compound (test compound at 1.0 μM): +++ (Gcase activation greater than 60%)

Cc1cc(-c2ccc3ocnc3c2)nc2c(C(=O)N[C@H](C3CC3)C(F)(F)F)cnn12 [III-109]
Percent Gcase Activation, 0.1 μM Test Compound (test compound at 0.1 μM): *** (greater than 20% Gcase activation) | Percent Gcase Activation, 1 μM Test Compound (test compound at 1.0 μM): +++ (Gcase activation greater than 60%)

Cc1cc(-c2cc(F)c3ocnc3c2)nc2c(C(=O)NC(C)C(F)(F)F)cnn12 (centres unmarked) [III-295]
Percent Gcase Activation, 0.1 μM Test Compound (0.1 μM test compound): *** (greater than 20% Gcase activation) | Percent Gcase Activation, 1 μM Test Compound (1 μM test compound): +++ (Gcase activation greater than 60%)

Cc1cc(-c2noc(C(C)C)n2)nc2c(C(=O)N[C@@H](C3CC3)C(F)(F)F)cnn12 [III-394]
Percent Gcase Activation, 0.1 μM Test Compound (0.1 μM test compound): *** (greater than 20% Gcase activation) | Percent Gcase Activation, 1 μM Test Compound (1 μM test compound): +++ (Gcase activation greater than 60%)

Cc1cc(-c2sccc2C#N)nc2c(C(=O)NC(C3CC3)C(F)(F)F)cnn12 (centres unmarked) [III-189]
Percent Gcase Activation, 0.1 μM Test Compound (test compound at 0.1 μM): *** (greater than 20% Gcase activation) | Percent Gcase Activation, 1 μM Test Compound (test compound at 1.0 μM): +++ (Gcase activation greater than 60%)

Cc1cc(-c2cccnc2)nc2c(C(=O)N[C@H]3CC[C@H](OC(C)(C)C)CC3)cnn12 [III-38]
Percent Gcase Activation, 0.1 μM Test Compound (0.1 μM test compound, Table 3A): * (less than 10% Gcase activation) | Percent Gcase Activation, 1 μM Test Compound (1 μM test compound, Table 3A): + (less than 30% Gcase activation)

Cc1cc(-c2noc(C(C)C)n2)nc2c(C(=O)N[C@H](C3CC3)C(F)(F)F)cnn12 [III-393]
Percent Gcase Activation, 0.1 μM Test Compound (0.1 μM test compound): *** (greater than 20% Gcase activation) | Percent Gcase Activation, 1 μM Test Compound (1 μM test compound): +++ (Gcase activation greater than 60%)

Cc1nsc(C)c1-c1cc(C)n2ncc(C(=O)N[C@@H](C3CC3)C(F)(F)F)c2n1 [III-386]
Percent Gcase Activation, 0.1 μM Test Compound (0.1 μM test compound): * (less than 10% Gcase activation) | Percent Gcase Activation, 1 μM Test Compound (1 μM test compound): + (less than 30% Gcase activation)

Cc1cc(-c2ccc(F)cc2C#N)nc2c(C(=O)NC(C)C(F)(F)F)cnn12 (centres unmarked) [III-154]
Percent Gcase Activation, 0.1 μM Test Compound (test compound at 0.1 μM): *** (greater than 20% Gcase activation) | Percent Gcase Activation, 1 μM Test Compound (test compound at 1.0 μM): +++ (Gcase activation greater than 60%)

Cc1cc(N2CCN(C(C)C)C2=O)nc2c(C(=O)NC(C)(C)C3CC3)cnn12 [III-230]
Percent Gcase Activation, 0.1 μM Test Compound (test compound at 0.1 μM): * (less than 10% Gcase activation) | Percent Gcase Activation, 1 μM Test Compound (test compound at 1.0 μM): ++ (Gcase activation in the range of 30% up to 60%)

Cc1cc(-c2cccc(Cl)c2)nc2c(C(=O)NC(C)C(F)(F)F)cnn12 (centres unmarked) [III-64]
Percent Gcase Activation, 0.1 μM Test Compound (0.1 μM test compound, Table 3A): *** (greater than 20% Gcase activation) | Percent Gcase Activation, 1 μM Test Compound (1 μM test compound, Table 3A): +++ (Gcase activation greater than 60%)

Cc1cc(-c2cccnc2F)nc2c(C(=O)N[C@H](C3CC3)C(F)(F)F)cnn12 [III-114]
Percent Gcase Activation, 0.1 μM Test Compound (test compound at 0.1 μM): *** (greater than 20% Gcase activation) | Percent Gcase Activation, 1 μM Test Compound (test compound at 1.0 μM): +++ (Gcase activation greater than 60%)

COc1ccc(F)cc1-c1cc(C)n2ncc(C(=O)N[C@@H](C)C(F)(F)F)c2n1 [III-196]
Percent Gcase Activation, 0.1 μM Test Compound (test compound at 0.1 μM): *** (greater than 20% Gcase activation) | Percent Gcase Activation, 1 μM Test Compound (test compound at 1.0 μM): +++ (Gcase activation greater than 60%)

Cc1cc(N2CCN(C(C)C)C2=O)nc2c(C(=O)N[C@@H](C3CC3)C(F)(F)F)cnn12 [III-326]
Percent Gcase Activation, 0.1 μM Test Compound (0.1 μM test compound): * (less than 10% Gcase activation) | Percent Gcase Activation, 1 μM Test Compound (1 μM test compound): +++ (Gcase activation greater than 60%)

Cc1cc(N2CCN(C(C)C)C2=O)nc2c(C(=O)NC(C3CC3)C(F)(F)F)cnn12 (centres unmarked) [III-225]
Percent Gcase Activation, 0.1 μM Test Compound (test compound at 0.1 μM): ** (Gcase activation in the range of 10% up to 20%) | Percent Gcase Activation, 1 μM Test Compound (test compound at 1.0 μM): +++ (Gcase activation greater than 60%)
